This note sets out measurements from paper PMC8427794 (ACS Omega, 2021).

The nature of data set [1]: Human liver microsomal stability. The data set is classed as in vitro ADME. To be noted: incubation with microsomes for 15 min at 5 μM.
Data set [2] is described as follows: Rat liver microsomal stability. The following applies: incubation with microsomes for 15 min at 5 μM. It is filed as in vitro ADME. Background: Liver microsomes are a subcellular fraction often used to study metabolism.
For data set [3], the target named is T1, mGlu2 receptor (Homo sapiens, UniProt Q14416). The data set is described as follows: [35S]GTPγS binding assay, agonist mode. The data set is classed as biochemical. The following applies: for Emax: read-out: mGlu2 Ago EMAX ±SD. On the technique in general: Binding of GTPγS marks nucleotide exchange on a G protein.
Data set [4] is described as follows: Brain and plasma kinetics in rat after a single dose. The data set is classed as in vivo, male Sprague Dawley rat.
Data set [5] deals with mGlu4 (Homo sapiens, UniProt Q14833). Description: Selectivity panel, mGlu4 assay. It is filed as cell-based.
In data set [6] the target is mGlu8 (Homo sapiens, UniProt O00222). Description: Selectivity panel, mGlu8 Ca2+ assay. It is filed as cell-based.
In data set [7] the target is mGlu3 (Homo sapiens, UniProt Q14832). Description: Selectivity panel, mGlu3 Ca2+ assay. It is filed as cell-based.
Data set [8] addresses mGlu1 (Homo sapiens, UniProt Q13255). The data set is described as follows: Selectivity panel, mGlu1 Ca2+ assay. The data set is classed as cell-based.
In data set [9] the target is mGlu7 (Homo sapiens, UniProt Q14831). The data set is described as follows: Selectivity panel, mGlu7 Ca2+ assay. It is filed as cell-based.
In data set [10] the target is mGlu6 (Rattus norvegicus, UniProt P35349). Description: Selectivity panel, mGlu6 [35S]GTPγS binding. It is filed as biochemical.
In data set [11] the target is mGlu5 (Homo sapiens, UniProt P41594). The data set is described as follows: Selectivity panel, mGlu5 Ca2+ assay. The data set is classed as cell-based.
Data set [12] deals with T1, mGlu2 receptor. Description: [35S]GTPγS binding assay, PAM mode. It is filed as biochemical.
Setting [13] is: male, Sprague Dawley, brain, po, 10 mg/kg.
[14] abbreviates: male, Sprague Dawley, plasma, po, 10 mg/kg.
The mark [15] stands for this setting: male, Sprague Dawley, brain, sc, 10 mg/kg.
Setting [16] is: male, Sprague Dawley, brain/plasma, sc, 10 mg/kg.
Where [17] appears, read: male, Sprague Dawley, plasma, sc, 10 mg/kg, pH 3.
[18] abbreviates: male, Sprague Dawley, plasma, sc, 10 mg/kg.

Where two headings read alike, the source gives them in different places.

mGlu3, sequence (Q14832 23-879): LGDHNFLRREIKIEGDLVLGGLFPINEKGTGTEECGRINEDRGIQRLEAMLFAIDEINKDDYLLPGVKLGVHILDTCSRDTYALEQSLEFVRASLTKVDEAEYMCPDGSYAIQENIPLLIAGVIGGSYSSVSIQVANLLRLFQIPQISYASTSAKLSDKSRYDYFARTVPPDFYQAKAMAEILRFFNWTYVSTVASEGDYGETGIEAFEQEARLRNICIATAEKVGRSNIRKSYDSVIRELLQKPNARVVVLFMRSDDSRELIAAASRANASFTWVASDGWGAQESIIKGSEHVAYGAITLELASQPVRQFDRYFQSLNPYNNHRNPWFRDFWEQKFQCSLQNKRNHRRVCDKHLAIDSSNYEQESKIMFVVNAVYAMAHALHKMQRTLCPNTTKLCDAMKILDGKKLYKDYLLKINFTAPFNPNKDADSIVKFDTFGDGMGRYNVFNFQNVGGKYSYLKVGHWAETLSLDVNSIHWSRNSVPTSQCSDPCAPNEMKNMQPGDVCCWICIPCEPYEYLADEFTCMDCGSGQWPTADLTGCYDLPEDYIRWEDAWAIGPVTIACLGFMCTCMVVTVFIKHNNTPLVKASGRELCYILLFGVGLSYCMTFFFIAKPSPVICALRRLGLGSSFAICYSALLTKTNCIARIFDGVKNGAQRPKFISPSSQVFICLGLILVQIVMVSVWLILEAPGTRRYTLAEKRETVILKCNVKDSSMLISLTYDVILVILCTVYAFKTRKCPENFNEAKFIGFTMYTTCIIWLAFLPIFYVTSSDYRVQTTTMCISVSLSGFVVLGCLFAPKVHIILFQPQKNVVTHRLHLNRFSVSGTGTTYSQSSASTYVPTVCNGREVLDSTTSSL
T1 sequence (Q14416 19-872): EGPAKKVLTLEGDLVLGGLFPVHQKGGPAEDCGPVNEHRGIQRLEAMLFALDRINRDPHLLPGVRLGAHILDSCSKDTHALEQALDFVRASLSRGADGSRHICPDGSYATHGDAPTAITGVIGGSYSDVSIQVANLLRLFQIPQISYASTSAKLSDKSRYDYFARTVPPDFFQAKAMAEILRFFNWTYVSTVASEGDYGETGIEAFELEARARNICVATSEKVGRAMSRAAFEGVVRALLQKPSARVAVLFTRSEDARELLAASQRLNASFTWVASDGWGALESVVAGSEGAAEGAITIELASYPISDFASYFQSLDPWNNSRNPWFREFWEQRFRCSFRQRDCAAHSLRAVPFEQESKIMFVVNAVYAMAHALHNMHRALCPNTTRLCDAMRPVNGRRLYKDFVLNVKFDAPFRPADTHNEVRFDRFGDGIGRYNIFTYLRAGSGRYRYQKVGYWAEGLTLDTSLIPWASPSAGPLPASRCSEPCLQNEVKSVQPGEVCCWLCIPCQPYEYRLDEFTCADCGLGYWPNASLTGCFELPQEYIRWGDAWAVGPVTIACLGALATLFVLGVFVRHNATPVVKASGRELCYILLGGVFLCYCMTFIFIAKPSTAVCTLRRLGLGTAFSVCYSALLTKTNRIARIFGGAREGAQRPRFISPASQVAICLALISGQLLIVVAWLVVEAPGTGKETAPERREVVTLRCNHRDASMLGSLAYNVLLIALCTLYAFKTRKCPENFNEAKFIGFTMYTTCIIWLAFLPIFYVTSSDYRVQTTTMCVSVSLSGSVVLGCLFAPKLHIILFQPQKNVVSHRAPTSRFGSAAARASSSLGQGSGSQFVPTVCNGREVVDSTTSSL
mGlu4, sequence (Q14833 33-912): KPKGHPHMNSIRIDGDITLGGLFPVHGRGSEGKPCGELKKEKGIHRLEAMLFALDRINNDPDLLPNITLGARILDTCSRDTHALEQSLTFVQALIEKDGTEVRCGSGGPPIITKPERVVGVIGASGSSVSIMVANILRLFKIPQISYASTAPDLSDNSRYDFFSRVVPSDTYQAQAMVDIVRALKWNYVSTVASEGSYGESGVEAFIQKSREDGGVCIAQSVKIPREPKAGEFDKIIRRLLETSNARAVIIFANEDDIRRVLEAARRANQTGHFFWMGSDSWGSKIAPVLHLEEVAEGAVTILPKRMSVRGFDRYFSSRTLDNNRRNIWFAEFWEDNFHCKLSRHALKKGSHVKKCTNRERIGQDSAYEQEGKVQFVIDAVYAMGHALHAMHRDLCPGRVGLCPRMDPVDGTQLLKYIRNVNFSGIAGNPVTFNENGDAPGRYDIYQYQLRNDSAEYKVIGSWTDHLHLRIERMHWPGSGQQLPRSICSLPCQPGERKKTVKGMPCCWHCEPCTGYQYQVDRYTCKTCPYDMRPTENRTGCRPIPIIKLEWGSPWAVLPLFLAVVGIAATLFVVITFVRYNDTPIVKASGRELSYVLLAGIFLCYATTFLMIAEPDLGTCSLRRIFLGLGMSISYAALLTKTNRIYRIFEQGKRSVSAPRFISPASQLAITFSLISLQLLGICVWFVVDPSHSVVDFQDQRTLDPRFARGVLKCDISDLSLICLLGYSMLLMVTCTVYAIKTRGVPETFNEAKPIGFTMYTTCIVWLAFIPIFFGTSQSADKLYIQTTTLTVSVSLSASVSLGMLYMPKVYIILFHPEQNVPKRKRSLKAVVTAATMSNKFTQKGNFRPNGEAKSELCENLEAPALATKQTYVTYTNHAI
mGlu7, sequence (Q14831 35-915): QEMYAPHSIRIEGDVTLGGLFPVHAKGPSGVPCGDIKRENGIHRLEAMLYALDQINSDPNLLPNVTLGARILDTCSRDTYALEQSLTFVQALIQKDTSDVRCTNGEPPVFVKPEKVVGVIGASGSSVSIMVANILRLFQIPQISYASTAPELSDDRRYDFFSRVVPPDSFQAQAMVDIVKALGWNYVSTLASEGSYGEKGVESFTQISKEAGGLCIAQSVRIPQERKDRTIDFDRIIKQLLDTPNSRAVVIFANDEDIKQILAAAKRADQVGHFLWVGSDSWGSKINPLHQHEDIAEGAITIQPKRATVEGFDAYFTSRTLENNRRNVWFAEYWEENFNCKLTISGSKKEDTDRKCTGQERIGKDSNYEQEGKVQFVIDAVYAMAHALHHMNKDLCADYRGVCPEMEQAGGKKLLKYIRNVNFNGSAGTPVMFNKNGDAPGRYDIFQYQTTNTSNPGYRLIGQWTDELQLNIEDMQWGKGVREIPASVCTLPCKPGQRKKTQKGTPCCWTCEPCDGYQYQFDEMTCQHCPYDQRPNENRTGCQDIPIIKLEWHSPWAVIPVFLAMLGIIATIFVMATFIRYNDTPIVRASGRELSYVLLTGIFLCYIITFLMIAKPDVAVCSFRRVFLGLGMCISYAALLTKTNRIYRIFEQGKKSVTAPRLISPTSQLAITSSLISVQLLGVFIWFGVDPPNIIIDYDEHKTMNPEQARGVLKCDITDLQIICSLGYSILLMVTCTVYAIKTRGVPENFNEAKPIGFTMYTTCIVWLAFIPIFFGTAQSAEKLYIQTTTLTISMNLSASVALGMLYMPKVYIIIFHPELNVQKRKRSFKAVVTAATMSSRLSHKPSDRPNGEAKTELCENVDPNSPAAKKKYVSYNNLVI
mGlu1, sequence (Q13255 19-1194): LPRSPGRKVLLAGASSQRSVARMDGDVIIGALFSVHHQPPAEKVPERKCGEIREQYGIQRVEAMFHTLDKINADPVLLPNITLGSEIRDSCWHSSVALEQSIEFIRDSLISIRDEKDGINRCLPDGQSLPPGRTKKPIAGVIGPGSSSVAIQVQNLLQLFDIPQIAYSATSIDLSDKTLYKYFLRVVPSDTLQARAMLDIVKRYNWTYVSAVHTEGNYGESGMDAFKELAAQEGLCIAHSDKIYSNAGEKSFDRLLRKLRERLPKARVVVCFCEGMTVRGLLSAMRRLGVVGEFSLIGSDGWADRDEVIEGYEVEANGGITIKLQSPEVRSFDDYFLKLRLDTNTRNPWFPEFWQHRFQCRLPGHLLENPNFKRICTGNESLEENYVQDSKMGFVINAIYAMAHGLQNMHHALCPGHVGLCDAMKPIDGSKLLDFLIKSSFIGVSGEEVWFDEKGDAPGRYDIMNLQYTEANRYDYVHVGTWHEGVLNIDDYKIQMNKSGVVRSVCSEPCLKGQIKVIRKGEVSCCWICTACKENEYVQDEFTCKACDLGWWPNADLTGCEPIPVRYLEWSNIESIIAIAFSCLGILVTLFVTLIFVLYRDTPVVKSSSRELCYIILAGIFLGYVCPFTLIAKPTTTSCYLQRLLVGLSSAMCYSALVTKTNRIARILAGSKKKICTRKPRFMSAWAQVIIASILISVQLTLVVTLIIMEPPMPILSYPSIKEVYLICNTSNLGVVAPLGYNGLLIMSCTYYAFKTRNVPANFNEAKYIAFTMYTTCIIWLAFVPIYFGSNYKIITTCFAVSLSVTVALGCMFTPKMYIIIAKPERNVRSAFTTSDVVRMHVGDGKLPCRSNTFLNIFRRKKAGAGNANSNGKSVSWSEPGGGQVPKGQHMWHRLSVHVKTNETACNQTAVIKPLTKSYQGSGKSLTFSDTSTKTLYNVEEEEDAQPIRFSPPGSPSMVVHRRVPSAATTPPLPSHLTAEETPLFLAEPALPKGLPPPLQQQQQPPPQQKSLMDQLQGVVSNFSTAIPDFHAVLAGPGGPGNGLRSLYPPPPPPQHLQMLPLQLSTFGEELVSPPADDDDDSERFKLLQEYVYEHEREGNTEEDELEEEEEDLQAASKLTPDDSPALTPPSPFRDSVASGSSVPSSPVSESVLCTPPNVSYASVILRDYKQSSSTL

Take `CCCCn1cnn2c(-c3ccc(OCC4CC4)c(Cl)c3)cnc2c1=O` [Compound 4b, 3-Butyl-7-[3-chloro-4-(cyclopropylmethoxy)phenyl]imidazo[2,1-f][1,2,4]triazin-4-one]: the “HLM (%), percentage of compound metabolized” value (“HLM (%), percentage” for short) in data set [1] is on record as 1%. Moreover, in data set [2], the “RLM (%), percentage of compound metabolized” value (from here on “RLM (%), percentage”) is recorded as 25%.
In the same order, the values of `CCCCn1ccn2c(-c3ccc(OCC4CC4)c(Cl)c3)nnc2c1=O` [Compound 4a, 7-Butyl-3-[3-chloro-4-(cyclopropylmethoxy)phenyl]-[1,2,4]triazolo[4,3-a]pyrazin-8-one] are 2% and 45%.
The corresponding values for `CCCCn1cnc2c(-c3ccc(OCC4CC4)c(Cl)c3)c(C)nn2c1=O` [Compound 4d, 3-Butyl-8-[3-chloro-4-(cyclopropylmethoxy)phenyl]-7-methyl-pyrazolo[1,5-a][1,3,5]triazin-4-one] are 0% and 60%.
The corresponding values for `CCCCn1ccn2c(CN3CCC(c4ccccc4)CC3)c(C)nc2c1=O` [Compound 3a] are 20% and 58%.
For the molecule `CCCCn1ccn2c(-c3ccc(Oc4ccccc4)cc3)c(C)nc2c1=O` [Compound 3j], in [3], the EC50 worked out at 0.151 µM and the Emax came out at 48 ± 2%. The “HLM (%), percentage” value in data set [1] is given as 2%. The “brain level 4 h” value in data set [4] (10 mg/kg p.o., 4 h) is “BQL ^d”. In [4] (setting [13]), the concentration at 1 h was 104 ng/g and the concentration at 2 h is 92 ng/g. Moreover, the Kp at 2 h in [4] (male, Sprague Dawley, brain/plasma, po, 10 mg/kg) stood at 0.5. In [4] (setting [14]), the concentration at 1 h was 263 ng/mL, the concentration at 2 h is 192 ng/mL and the concentration at 4 h was 14 ng/mL. For the same molecule, the “RLM (%), percentage” value in [2] is 86%.
In the case of `CCCCn1ncn2c(-c3ccc(OCC4CC4)c(Cl)c3)cnc2c1=O` [Compound 4c, 7-Butyl-3-[3-chloro-4-(cyclopropylmethoxy)phenyl]imidazo[1,2-d][1,2,4]triazin-8-one], the “HLM (%), percentage” value in [1] stood at 4%. Also, in data set [2], the “RLM (%), percentage” value was found to be 21%.
In [3], `CCCCn1ccn2c(-c3ccc(Oc4ccc(C)nc4C)c(F)c3)c(C)nc2c1=O` [Compound 3c] registered an EC50 of 1.82 µM. Besides, the Emax in data set [3] was 54%. In data set [1], the “HLM (%), percentage” value amounted to 24%. The concentration at 1 h in [4] (setting [15]) worked out at 446 ng/g; in data set [4] (setting [17]), 1820 ng/mL. The Kp at 1 h in data set [4] (setting [16]) is 0.2. Also, the “RLM (%), percentage” value in data set [2] came out at 56%.
As to `CCCCn1ccn2c(-c3ccc(N4CCNCC4)c(Cl)c3)c(C)nc2c1=O` [Compound 3g], in data set [3], the EC50 was found to be 0.989 µM and the Emax is 36 ± 4%. The “HLM (%), percentage” value in [1] is on record as 0%. In addition, the “RLM (%), percentage” value in [2] amounted to 17%.
With `CCCCn1ccn2c(-c3ccc(NCc4ccc(OC)nc4)cc3)c(C)nc2c1=O` [Compound 3d], in data set [3], the EC50 is 0.571 µM and the Emax amounted to 47 ± 1%. Also, the “HLM (%), percentage” value in data set [1] was determined as 59%. The molecule further gave a Kp at […] in data set [4] (setting [16]) of 0.3. Moreover, the “RLM (%), percentage” value in data set [2] was determined as 36%.
Take `CCCCn1ccn2c(-c3ccc(OCC4CC4)c(Cl)c3)c(C)nc2c1=O` [Compound 3e]: the EC50 in [5] was > 25 µM; in data set [6], > 25 µM; in data set [6] (read-out: mGlu8 agonism EC50, Ca2+ read-out), > 25 µM; in [7] (mGlu3 PAM EC50, Ca2+ read-out) it was 14.3 µM; in data set [7] (mGlu3 agonism EC50, Ca2+ read-out), > 30 µM; in data set [8] it was > 30 µM. In addition, the EC50 in data set [9] is > 25 µM; in [9] (read-out: mGlu7 agonism EC50, Ca2+ read-out) it was > 25 µM; in [10] it was > 30 µM; in data set [11], > 30 µM; in data set [11] (read-out: mGlu5 agonism EC50, Ca2+ read-out), > 30 µM. Further, the 50% inhibitory concentration (IC50) in data set [5] was 17 µM; in [6], > 25 µM; in data set [7] it was > 30 µM; in [8] it was > 30 µM; in [9], 8.32 µM; in [10], 26.5 µM. Also, the IC50 in data set [11] is > 30 µM. In addition, the Emax was 5% in data set [5] (read-out: mGlu4 agonism Emax); 100% in [5] (read-out: mGlu4 antagonism Emax); -4% in data set [6] (read-out: mGlu8 agonism Emax); 16% in [6] (read-out: mGlu8 antagonism Emax); 63% in data set [7] (read-out: mGlu3 PAM Emax); 2% in data set [7] (read-out: mGlu3 agonism Emax). The Emax worked out at 15% in data set [7] (read-out: mGlu3 antagonism Emax); 4% in data set [8] (read-out: mGlu1 agonism Emax); 18% in [8] (read-out: mGlu1 antagonism Emax); 5% in [9] (read-out: mGlu7 PAM Emax); 1% in [9] (read-out: mGlu7 agonism Emax); 27% in data set [9] (read-out: mGlu7 antagonism Emax). The Emax came out at 1% in [10] (read-out: mGlu6 agonism Emax); 53% in [10] (read-out: mGlu6 antagonism Emax); 0% in data set [11] (read-out: mGlu5 PAM Emax); 0% in [11] (read-out: mGlu5 agonism Emax); 7% in [11] (read-out: mGlu5 antagonism Emax). Further, in data set [1], the “HLM (%), percentage” value is recorded as 20%. The concentration at 1 h in [4] (setting [15]) came out at 2540 ng/g; in [4] (setting [17]), 1420 ng/mL. For the same molecule, the concentration at 2 h in data set [4] (setting [15]) was determined as 2860 ng/g; in [4] (setting [18]), 1390 ng/mL. Besides, the concentration at 4 h in [4] (setting [15]) amounted to 835 ng/g; in data set [4] (setting [18]) it was 526 ng/mL. In addition, the “RLM (%), percentage” value in [2] is listed as 49%.
Take `CCCCn1ccn2c(-c3ccc4c(ccn4-c4cccnc4)c3)c(C)nc2c1=O` [Compound 3i]: in [3], the response was half-maximal at 0.229 µM (EC50) and the Emax was 44%. For the same molecule, the “HLM (%), percentage” value in data set [1] was 35%. Further, the “RLM (%), percentage” value in data set [2] is 47%.
Turning to `CCCCn1ccn2c(-c3ccc(OCC4CC4)c(Cl)c3)nc(C)c2c1=O` [Compound 4e, 7-Butyl-3-[3-chloro-4-(cyclopropylmethoxy)phenyl]-1-methyl-imidazo[1,5-a]pyrazin-8-one], in [3], the EC50 is > 50.1 µM and the Emax was 12%. The “HLM (%), percentage” value in [1] amounted to 31%. In addition, the “fold decrease in mGlu2 PAM potency vs 3e” value in data set [12] is reported as ~10 fold. Further, in [2], the “RLM (%), percentage” value was determined as 74%.

The term EC50 denotes the concentration that produces a half-maximal response. Broadly, the Emax is the size of the effect at its maximum, as opposed to the concentration needed. As usually defined, the Kp is tissue or fluid exposure divided by exposure in the circulation. One may read the IC50 as the midpoint of a concentration-inhibition curve.
